ChEMBL document CHEMBL5303573, “Mapping human microbiome drug metabolism by gut bacteria and their genes” (Nature, 2019)

Tests used:
[1] = The drug is tested on Collinsella intestinalis strain: DSM13280 for biotransformation. The drug concentrations were measured before and after a 12-h incubation by liquid-chromatography-coupled mass spectrometry (LC–MS); details: 2 µM
[2] = The drug is tested on Clostridium scindens strain: ATCC35704 for biotransformation. The drug concentrations were measured before and after a 12-h incubation by liquid-chromatography-coupled mass spectrometry (LC–MS); details: 2 µM
[3] = The drug is tested on Clostridium sporogenes strain: ATCC15579 for biotransformation. The drug concentrations were measured before and after a 12-h incubation by liquid-chromatography-coupled mass spectrometry (LC–MS); details: 2 µM
[4] = The drug is tested on Escherichia coli strain: BW25113 for biotransformation. The drug concentrations were measured before and after a 12-h incubation by liquid-chromatography-coupled mass spectrometry (LC–MS); details: 2 µM
[5] = victivallis vadensis, 12 h, 2 µM
Description: The drug is tested on Victivallis vadensis strain: ATCC BAA-548 for biotransformation. The drug concentrations were measured before and after a 12-h incubation by liquid-chromatography-coupled mass spectrometry (LC–MS)

[6] = The drug is tested on Bacteroides cellulosilyticus strain: DSM14838 for biotransformation. The drug concentrations were measured before and after a 12-h incubation by liquid-chromatography-coupled mass spectrometry (LC–MS); details: 2 µM
[7] = (§1) The drug is tested on the gut metagenome community of MV02 with ENA study accession number: PRJEB31790 and ENA sample accession number: SAMEA5537483 for biotransformation. The drug concentrations were measured over 9 timepoints collected between 0 and 24 hours of incubation by liquid-chromatography-coupled mass spectrometry (LC–MS); format: ADME; set-up: dose 2 uM, timepoint 0, 1, 2, 4, 6, 8, 12, 18, 24 hours; details: 2 µM
[8] = as §1, with “MV03” for “MV02”, “SAMEA5537484” for “SAMEA5537483”; format: ADME; set-up: dose 2 uM, timepoint 0, 1, 2, 4, 6, 8, 12, 18, 24 hours; details: 2 µM
[9] = as §1, with “MV05” for “MV02”, “SAMEA5537486” for “SAMEA5537483”; format: ADME; set-up: dose 2 uM, timepoint 0, 1, 2, 4, 6, 8, 12, 18, 24 hours; details: 2 µM
[10] = as §1, with “MV06” for “MV02”, “SAMEA5537487” for “SAMEA5537483”; format: ADME; set-up: dose 2 uM, timepoint 0, 1, 2, 4, 6, 8, 12, 18, 24 hours; details: 2 µM
[11] = as §1, with “MV09” for “MV02”, “SAMEA5537490” for “SAMEA5537483”; format: ADME; set-up: dose 2 uM, timepoint 0, 1, 2, 4, 6, 8, 12, 18, 24 hours; details: 2 µM
[12] = as §1, with “MV12” for “MV02”, “SAMEA5537493” for “SAMEA5537483”; format: ADME; set-up: dose 2 uM, timepoint 0, 1, 2, 4, 6, 8, 12, 18, 24 hours; details: 2 µM
[13] = as §1, with “MV13” for “MV02”, “SAMEA5537494” for “SAMEA5537483”; format: ADME; set-up: dose 2 uM, timepoint 0, 1, 2, 4, 6, 8, 12, 18, 24 hours; details: 2 µM
[14] = as §1, with “MV16” for “MV02”, “SAMEA5537497” for “SAMEA5537483”; format: ADME; set-up: dose 2 uM, timepoint 0, 1, 2, 4, 6, 8, 12, 18, 24 hours; details: 2 µM
[15] = as §1, with “MV22” for “MV02”, “SAMEA5537503” for “SAMEA5537483”; format: ADME; set-up: dose 2 uM, timepoint 0, 1, 2, 4, 6, 8, 12, 18, 24 hours; details: 2 µM
[16] = as §1, with “MV27” for “MV02”, “SAMEA5537508” for “SAMEA5537483”; format: ADME; set-up: dose 2 uM, timepoint 0, 1, 2, 4, 6, 8, 12, 18, 24 hours; details: 2 µM
[17] = as §1, with “MV28” for “MV02”, “SAMEA5537509” for “SAMEA5537483”; format: ADME; set-up: dose 2 uM, timepoint 0, 1, 2, 4, 6, 8, 12, 18, 24 hours; details: 2 µM
[18] = The drug is tested on Clostridium hathewayi strain: DSM13479 for biotransformation. The drug concentrations were measured before and after a 12-h incubation by liquid-chromatography-coupled mass spectrometry (LC–MS); details: hungatella hathewayi, 2 µM
[19] = The drug is tested on Clostridium spiroforme strain: DSM1552 for biotransformation. The drug concentrations were measured before and after a 12-h incubation by liquid-chromatography-coupled mass spectrometry (LC–MS); details: thomasclavelia spiroformis, 2 µM
[20] = The drug is tested on Salmonella typhimurium strain: LT2 for biotransformation. The drug concentrations were measured before and after a 12-h incubation by liquid-chromatography-coupled mass spectrometry (LC–MS); details: salmonella enterica subsp. enterica, 2 µM

Row | SMILES | Bacterial Biotransformation [1] | Bacterial Biotransformation [2] | Bacterial Biotransformation [3] | Bacterial Biotransformation [4] | Bacterial Biotransformation [5] | Bacterial Biotransformation [6] | other results
1 | CCCCC(=O)N(Cc1ccc(-c2ccccc2-c2nnn[nH]2)cc1)[C@H](C(=O)O)C(C)C | Compound NOT metabolized | Compound NOT metabolized | Compound NOT metabolized | Compound NOT metabolized | Compound NOT metabolized |  | 
2 | COc1ccc(/C=C/C(=O)Nc2ccccc2C(=O)O)cc1OC | Compound NOT metabolized | Compound NOT metabolized | Compound NOT metabolized | Compound NOT metabolized | Compound NOT metabolized | Compound NOT metabolized | 
3 | CCCCC(=O)O[C@]1(C(=O)CO)[C@@H](C)C[C@H]2[C@@H]3CCC4=CC(=O)C=C[C@]4(C)[C@@]3(F)[C@@H](O)C[C@@]21C [BETAMETHASONE VALERATE] | Compound NOT metabolized | Compound metabolized |  | Compound metabolized | Compound metabolized | Compound NOT metabolized | 
4 | C[C@@H]1C[C@H]2[C@@H]3CCC4=CC(=O)C=C[C@]4(C)[C@@]3(F)[C@@H](O)C[C@]2(C)[C@@]1(O)C(=O)CO [DEXAMETHASONE] | Compound NOT metabolized | Compound metabolized |  | Compound NOT metabolized | Compound NOT metabolized |  | Bacterial Biotransformation [7]: Compound NOT metabolized; Bacterial Biotransformation [8]: Compound metabolized; Bacterial Biotransformation [9]: Compound NOT metabolized; Bacterial Biotransformation [10]: Compound NOT metabolized; Bacterial Biotransformation [11]: Compound metabolized; Bacterial Biotransformation [12]: Compound NOT metabolized; Bacterial Biotransformation [13]: Compound NOT metabolized; Bacterial Biotransformation [14]: Compound NOT metabolized; Bacterial Biotransformation [15]: Compound NOT metabolized; Bacterial Biotransformation [16]: Compound NOT metabolized; Bacterial Biotransformation [17]: Compound NOT metabolized
5 | NC(CO)(CO)CO.O=C(c1ccccc1)c1ccc2n1CCC2C(=O)O (stereo not drawn) [KETOROLAC TROMETHAMINE] |  | Compound NOT metabolized | Compound NOT metabolized | Compound NOT metabolized |  | Compound NOT metabolized | 
6 | CN(C)C(=O)C(CCN1CCC(O)(c2ccc(Cl)cc2)CC1)(c1ccccc1)c1ccccc1 [LOPERAMIDE] |  | Compound NOT metabolized | Compound metabolized | Compound metabolized | Compound NOT metabolized | Compound NOT metabolized | 
7 | CCCCc1nc(Cl)c(CO)n1Cc1ccc(-c2ccccc2-c2nn[nH]n2)cc1 [LOSARTAN] | Compound NOT metabolized | Compound NOT metabolized | Compound NOT metabolized |  | Compound NOT metabolized | Compound metabolized | 
8 | OC(c1cc(C(F)(F)F)nc2c(C(F)(F)F)cccc12)C1CCCCN1 (stereo not drawn) [MEFLOQUINE] | Compound NOT metabolized | Compound NOT metabolized |  | Compound metabolized |  | Compound NOT metabolized | 
9 | CC12CC3CC(C)(C1)CC(N)(C3)C2 [MEMANTINE] | Compound NOT metabolized | Compound NOT metabolized | Compound NOT metabolized | Compound NOT metabolized |  |  | 
10 | COc1c2occc2cc2ccc(=O)oc12 [METHOXSALEN] |  | Compound NOT metabolized | Compound metabolized | Compound NOT metabolized |  | Compound metabolized | Bacterial Biotransformation [18]: Compound metabolized; Bacterial Biotransformation [19]: Compound NOT metabolized
11 | COC(=O)C(c1ccccc1)C1CCCCN1 (stereo not drawn) [METHYLPHENIDATE] | Compound NOT metabolized |  | Compound metabolized | Compound metabolized |  |  | Bacterial Biotransformation [20]: Compound NOT metabolized
